# Tests used:
# [1] = test system: Human mast cell line LAD cells; test: Degranulation test using human mast cell line LAD cells; format: cell-based; conditions: IgE-sensitized LAD cells, anti-human IgE stimulation, β-hexosaminidase release, read-out: degranulation inhibitory activity IC50
# Description: Human mast cell line LAD cells were sensitized with human IgE (Cosmo Bio; final concentration 1 μg/ml) overnight. The cells were harvested, and then washed with PBS (Invitrogen) and washed again with Tyrode's buffer solution (Sigma) containing 0.1% BSA (Sigma). The cells were seeded into a 96-well plate at 10^5 cells/well and then the compound (0.1% final concentration DMSO solution) was added, followed by incubation at 37° C. for 15 minutes. Rabbit anti-human IgE (Dako Japan; final concentration 10 μg/ml) or control Ig (Dako Japan; final concentration 10 μg/ml) was added, followed by incubation at 37° C. for 30 minutes. The supernatant was recovered and p-nitrophenyl-2-acetamido-2-deoxy-β-D-glucopyranoside (Sigma; final concentration 4 mM), a substrate of β-hexosaminidase which is an index of degranulation, was added, followed by incubation at 37° C. for 45 minutes. Glycine (Wako; final concentration 0.2 M, pH 10.4) was added and the reaction was terminated. Then, the absorbance at 405 nm was measured.
# The inhibition rate (%) was calculated as (anti-IgE antibody degranulation rate—compound-added group degranulation rate)/(anti-IgE antibody degranulation rate—control antibody degranulation rate)×100. The IC50 value was calculated from the inhibition rate at each concentration and used as an index of inhibitory activity.
# [2] = test system: collagen-induced arthritis; test: Mouse collagen-induced arthritis (CIA) test; format: in vivo; conditions: male DBA/1 mice, oral administration for 42 consecutive days, arthritis score
# Description: Seven-week-old male DBA/1 mice were sensitized by intradermal administration of bovine type II collagen/complete Freund's adjuvant emulsion (150 μg/0.1 ml/mouse) to the tail head. 21 days after the primary sensitization, the mice were similarly boosted by intradermal administration of bovine type II collagen/complete Freund's adjuvant emulsion (100 μg/0.1 ml/mouse) to the tail head. After the booster, the degree of arthritis was scored by observation for each extremity twice a week on the following scale. • 0: No arthritis • 1: Edema in one finger joint • 2: Edema in two or more finger joints or instep • 3: Edema in tarsus or ankle • 4: Severe edema or joint deformation Oral administration of the test compound, or only a vehicle as a control, was started 30 minutes prior to the booster, and administration was carried out for 42 consecutive days thereafter. For each day passed, the total score for the extremities was provided as an arthritis score for one individual (0 to 16), and the arthritis onset inhibitory effect was evaluated as an average value for eight cases using the vehicle-administered group as a control group.
# [3] = molecular target: T1, Syk (Homo sapiens, UniProt P43405); test: Syk inhibition test; format: biochemical; conditions: poly(L-glu-L-tyr) substrate, ATP 5 μM, [γ-33P]ATP, 30 minutes room temperature; read-out: Syk inhibitory activity IC50
# T1 construct: purchased Wako Pure Chemical Industries
# Description: 10 ng/10 μl/well of a Syk (Wako Pure Chemical Industries) solution, 15 μl of a poly(L-glu-L-tyr) substrate peptide solution (Sigma, final concentration 5 μM), 20 μl of an ATP mixture (ATP: Oriental Yeast, final concentration 5 μM, [γ-33P]ATP: GE Healthcare Biosciences, 0.1 μCi/well) and 5 μl of a test substance solution were added to a 96-well Corning reaction plate, followed by incubation at room temperature for 30 minutes. An assay buffer containing 50 mM Tris pH 7.5, 10 mM MgCl2, 0.1 mM Na3VO4, 1 mM DTT, 0.01% CHAPS and 100 μg/ml BSA was used. The test substance solution was made by dissolving the test substance in DMSO at each concentration. The final concentration of DMSO was 1%. The reaction was terminated by adding 100 μl of a 120 mM phosphoric acid solution as a reaction terminator. Then, the total reaction solution was transferred to MultiScreen (Millipore) and washed with 200 μl of 100 mM phosphoric acid four times.
# After drying, 20 μl of MicroScint-O (PerkinElmer) was added and the radioactivity was measured by TopCount (PerkinElmer). The ratio of the radioactivity when the test substance was added to the radioactivity when the test substance was not added was determined. The IC50 value was calculated from the inhibition rate at each concentration and used as an index of inhibitory activity.
# [4] = molecular target: T2, Abl (Homo sapiens, UniProt P00519); test: Abl inhibition test; format: biochemical; conditions: Abltide substrate, ATP 6 μM, [γ-33P]ATP, 40 minutes room temperature; read-out: Abl inhibitory activity IC50
# T2 construct: purchased Wako Pure Chemical Industries
# T2 sequence (P00519 whole entry, species assumed): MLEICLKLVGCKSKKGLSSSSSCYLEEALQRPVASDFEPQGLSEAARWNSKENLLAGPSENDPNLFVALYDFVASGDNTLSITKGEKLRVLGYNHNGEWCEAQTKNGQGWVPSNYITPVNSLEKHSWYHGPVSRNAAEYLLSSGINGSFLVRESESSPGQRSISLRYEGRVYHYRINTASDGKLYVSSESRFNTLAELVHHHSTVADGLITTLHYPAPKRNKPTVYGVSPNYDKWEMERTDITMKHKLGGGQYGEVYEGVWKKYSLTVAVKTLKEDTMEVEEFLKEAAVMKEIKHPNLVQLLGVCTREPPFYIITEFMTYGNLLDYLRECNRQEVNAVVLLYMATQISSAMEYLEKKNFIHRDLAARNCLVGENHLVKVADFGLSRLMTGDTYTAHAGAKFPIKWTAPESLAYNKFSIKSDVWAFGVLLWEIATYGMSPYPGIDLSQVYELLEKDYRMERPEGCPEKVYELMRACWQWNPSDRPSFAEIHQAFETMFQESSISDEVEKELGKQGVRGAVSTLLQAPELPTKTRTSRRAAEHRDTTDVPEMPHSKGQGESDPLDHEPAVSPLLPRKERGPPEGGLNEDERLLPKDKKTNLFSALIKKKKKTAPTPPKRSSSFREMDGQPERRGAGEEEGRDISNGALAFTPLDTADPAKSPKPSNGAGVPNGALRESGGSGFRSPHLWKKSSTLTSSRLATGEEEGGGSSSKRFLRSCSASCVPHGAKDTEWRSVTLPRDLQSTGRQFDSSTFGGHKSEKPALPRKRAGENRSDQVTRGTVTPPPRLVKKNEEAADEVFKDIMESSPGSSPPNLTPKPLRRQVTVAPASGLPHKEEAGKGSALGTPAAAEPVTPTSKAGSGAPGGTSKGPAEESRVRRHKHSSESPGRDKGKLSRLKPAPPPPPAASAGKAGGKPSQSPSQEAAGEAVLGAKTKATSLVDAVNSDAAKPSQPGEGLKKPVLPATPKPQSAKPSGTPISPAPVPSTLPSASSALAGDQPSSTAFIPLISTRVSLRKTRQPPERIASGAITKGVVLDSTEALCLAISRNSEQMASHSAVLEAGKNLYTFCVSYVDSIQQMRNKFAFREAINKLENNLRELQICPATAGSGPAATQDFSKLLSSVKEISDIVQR
# Description: 5 ng/5 μl/well of an Abl (Wako Pure Chemical Industries) solution, 30 μl of an Abltide substrate peptide solution (Wako Pure Chemical Industries; final concentration 5 μM) and 5 μl of a test substance solution were added to a 96-well plate (Corning), followed by incubation at room temperature for 15 minutes. Then, 10 μl of an ATP mixture (ATP: Oriental Yeast, final concentration 6 μM, [γ-33P]ATP: GE Healthcare Biosciences, 0.06 μCi/well, MgAcetate: Cosmo Bio, final concentration 10 mM) was added, followed by incubation at room temperature for 40 minutes. The Abl solution was prepared using a kinase buffer (20 mM MOPS pH 7.0, 1 mM EDTA, 0.1% β-mercaptoethanol, 0.01% Brij-35, 5% glycerol, 1 mg/ml BSA). The substrate peptide solution and the ATP mixture were prepared using 8 mM MOPS pH 7.0 and 0.2 mM
# EDTA. The test substance solution was made by dissolving the test substance in DMSO at each concentration. The final concentration of DMSO was 1%. The reaction was terminated by adding 100 μl of a 100 mM phosphoric acid solution as a reaction terminator. Then, the total reaction solution was transferred to a 96-well MultiScreen plate (Millipore) and washed with 200 μl of 100 mM phosphoric acid three times. After drying, 20 μl of MicroScint-O (PerkinElmer) was added and the radioactivity was measured by TopCount (PerkinElmer). After subtracting the radioactivity in the well to which the Abltide substrate peptide was not added from each radioactivity, the ratio of the radioactivity when the test substance was added to the radioactivity when the test substance was not added was determined. The IC50 value was calculated from the inhibition rate at each concentration and used as an index of inhibitory activity.
# [5] = test system: PCA reaction; test: Rat passive cutaneous anaphylaxis (PCA) test; format: in vivo; conditions: male Wistar rats, oral administration four hours prior to antigen challenge, blue spot area
# Description: The back of seven-week-old male Wistar rats was clipped under light anesthesia with ether, and the rats were sensitized by intradermal administration of 100 μl of 25 ng/ml anti-dinitrophenyl-IgE (DNP-IgE) (Sigma) to the back. 24 hours after the sensitization, 1 ml of a 0.5% Evans blue solution containing 1 mg of DNP-BSA was intravenously administered. Further, 30 minutes after the administration, the rats were sacrificed and the back skin was collected. The test compound, or only a vehicle as a control, was orally administered four hours prior to the antigen challenge. The length and breadth of the skin blue spot were calipered, and the area of the blue spot was calculated as length×breadth. The PCA inhibition rate by the test substance was calculated by the following formula. In the formula, • C represents: a blue spot area by PCA reaction when only the vehicle was administered, and • X represents: a blue spot area by PCA reaction when the test compound was administered. Inhibition rate (%)=(C−X)×100/C
SMILES,IC50 [1] [µM],inhibition of the onset of arthritis in the CIA model [2],IC50 [3] [µM],IC50 [4] [µM],inhibition of PCA reaction [5]
CS(=O)(=O)c1n[nH]c2nc(Nc3ccc(N4CCOCC4)cc3)nc(NC3CC3)c12 [Compound 7],0.024,excellently inhibited the onset of arthritis,,,
"CS(=O)(=O)c1n[nH]c2nc(Nc3ccc(N4CCOCC4)cc3)nc(NC3CC3)c12 [Compound 6, N^4-Cyclopropyl-3-(methylsulfonyl)-N^6-(4-morpholin-4-ylphenyl)-1H-pyrazolo[3,4-d]pyrimidine-4,6-diamine]",,,0.16,≤ 0.05,excellently inhibited PCA reaction
"CN1CCN(c2ccc(Nc3nc(NC4CC4)c4c(S(C)(=O)=O)n[nH]c4n3)cc2)CC1 [Compound 131, N^4-Cyclopropyl-N^6-[4-(4-methylpiperazin-1-yl)phenyl]-3-(methylsulfonyl)-1H-pyrazolo[3,4-d]pyrimidine-4,6-diamine]",≤ 0.1,,≤ 0.2,≤ 0.01,

# Reference: patent US20100298557A1, “PYRAZOLOPYRIMIDINE COMPOUND” (Taisho Pharmaceutical Co., Ltd, priority 2006, published 2010)
